Measurements as given in patent publication US7459447B2, “Method for treating hyperlipidemia” (Kowa Co., Ltd., priority 2004, dated 2008).

Tested on: Hartley male guinea pigs
Experiment: Blood cholesterol level lowering effect in guinea pigs, oral administration once a day for 14 days
Assay type: in vivo, guinea pig
Details: ezetimibe 3 mg/kg, oral once a day for 14 days, blood collected after 18 h fast; for Reduction ratio (%) of blood cholesterol level: vs control group
Procedure: The blood cholesterol level lowering effect when a calcium salt of pitavastatin and ezetimibe were coadministered was measured by the below-described testing method. For comparison, a calcium salt of atorvastatin was used instead of the calcium salt of pitavastatin and the effect brought about by the concomitant use of two medicaments was measured in a similar manner. • 1. Animals Provided for the Test and Their Breeding Environment
Six-week-old Hartley male guinea pigs (purchased from Nippon SLC) were provided for the test. Throughout the test period, they were bred in a breeding room maintained at a light-dark cycle (a light term by a room light: from 7:00 am to 7:00 pm), a temperature of 23 ±3° C. and a humidity of 55 ±15% and fed with a solid feedstuff (“RC-4”, product of Oriental Yeast Industry) and tap water ad libitum. • 2. Preparation of Medicament
Treatment method according to the invention: The calcium salt of pitavastatin and ezetimibe were suspended in a 0.5 wt. % aqueous solution of carboxymethylcellulose sodium (product of Iwai Chemicals Company) and their concentrations were adjusted to 1 mg/mL and 3 mg/mL, respectively. Since the calcium salt of pitavastatin contained 9.43 wt. % of water, 1.1 times the weight of the dosage was weighed for correction. The suspension was refrigerated (4° C.) in a light resistant bottle and adjustment was conducted every 7 days.
Treatment method for comparison: In a similar manner to that described above except the use of the calcium salt of atorvastatin instead of the calcium salt of pitavastatin, a medicament (atorvastatin calcium 5 mg/mL) for comparison test was prepared. • 3. Testing Method
The treatment method according to the present invention: Twenty four guinea pigs were classified into four groups (each consisting of 6 guinea pigs), that is, a control group, a single administration group of pitavastatin calcium salt (1 mg/kg), a single administration group of ezetimibe (3 mg/kg), and a coadministration group of pitavastatin calcium salt (1 mg/kg) and ezetimibe (3 mg/kg) so that they differ little in the total blood cholesterol level and blood triglyceride level. These two medicaments were each administered at a dose of 1 mL/kg once a day and this administration was repeated for 14 days. To the control group, a 0.5 wt. % aqueous solution (1 mL/kg) of carboxymethylcellulose sodium was orally administered. In each group, the guinea pigs were fasted for 18 hours after the final administration and then the blood was collected from them to measure the blood cholesterol level.
Treatment method for comparison: twenty four guinea pigs were tested in a similar manner to the method according to the invention. The dosage of the calcium salt of atorvastatin was 5 mg/kg in each of the group nourished by the single use of atorvastatin calcium salt and the group nourished by the concomitant use of atorvastatin calcium salt and ezetimibe. • 4. Static Analysis and Data Processing Method
Multigroup comparison between the control group and the medicament administered group was performed using Bartlett's variance analysis—Dunnett's multiple comparative assay. A difference with a significance level less than 5% was regarded as significant. • 5. Results
A reduction ratio (%) is a value represented by ((total blood cholesterol level of control group on average−total blood cholesterol level of each group on average)/(total blood cholesterol level of control group on average))×100, while a relative index is a value represented by (total blood cholesterol level of each group on average)/(total blood cholesterol level of control group on average).

[1] = Table 2 comparison test: atorvastatin Ca 5 mg/kg
[2] = Table 1 test: pitavastatin Ca 1 mg/kg

CC(C)c1c(C(=O)Nc2ccccc2)c(-c2ccccc2)c(-c2ccc(F)cc2)n1CC[C@@H](O)C[C@@H](O)CC(=O)O [atorvastatin Ca] was tested, and the “Relative index (total blood cholesterol level of group / control group)” value [1] was 0.77 and the “Reduction ratio (%) of blood cholesterol level” value (“Reduction ratio (%)” below) [1] was 23%.

In the case of O=C1[C@H](CC[C@H](O)c2ccc(F)cc2)[C@@H](c2ccc(O)cc2)N1c1ccc(F)cc1 [ezetimibe, (3R,4S)-1-(4-fluorophenyl)-3-[(3S)-3-(4-fluorophenyl)-3-hydroxypropyl]-4-(4-hydroxyphenyl)-2-azetidinone], the “Relative index (total blood cholesterol level of group / control group)” value [2] is reported as 0.79, the “Reduction ratio (%)” value [2] is reported as 21% and the “Relative index (total blood cholesterol level of group / control group)” value [1] is reported as 0.81. For the same compound, the “Reduction ratio (%)” value [1] was 19%.

In the case of O=C(O)C[C@H](O)C[C@H](O)/C=C/c1c(C2CC2)nc2ccccc2c1-c1ccc(F)cc1 [pitavastatin Ca, (3R,5S,6E)-7-[2-cyclopropyl-4-(4-fluorophenyl)-3-quinolyl]-3,5-dihydroxy-6-heptenoic acid], the “Relative index (total blood cholesterol level of group / control group)” value [2] is reported as 0.71 and the “Reduction ratio (%)” value [2] is reported as 29%.
